Laboratory results as given in ChEMBL document CHEMBL1201862, “PubChem BioAssay data set” (2004).
Active and inactive are the calls of the source.

Assays:
[1] = target: T1, Heat shock factor protein 1 (Mus musculus, UniProt P38532); assay: HSF1 potentiators in luciferase reporter cells, confirmation, cell-based, NIH3T3, luminescence, dose retest (AID 435004); assay type: functional;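 also: stress induced by proteasome inhibitor MG132 added 30 min after compound; luciferase reporter driven by HSF1 response element in NIH3T3 cells; actives raise luminescence as potentiators of the MG132 stress response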
T1 sequence (P38532 whole entry): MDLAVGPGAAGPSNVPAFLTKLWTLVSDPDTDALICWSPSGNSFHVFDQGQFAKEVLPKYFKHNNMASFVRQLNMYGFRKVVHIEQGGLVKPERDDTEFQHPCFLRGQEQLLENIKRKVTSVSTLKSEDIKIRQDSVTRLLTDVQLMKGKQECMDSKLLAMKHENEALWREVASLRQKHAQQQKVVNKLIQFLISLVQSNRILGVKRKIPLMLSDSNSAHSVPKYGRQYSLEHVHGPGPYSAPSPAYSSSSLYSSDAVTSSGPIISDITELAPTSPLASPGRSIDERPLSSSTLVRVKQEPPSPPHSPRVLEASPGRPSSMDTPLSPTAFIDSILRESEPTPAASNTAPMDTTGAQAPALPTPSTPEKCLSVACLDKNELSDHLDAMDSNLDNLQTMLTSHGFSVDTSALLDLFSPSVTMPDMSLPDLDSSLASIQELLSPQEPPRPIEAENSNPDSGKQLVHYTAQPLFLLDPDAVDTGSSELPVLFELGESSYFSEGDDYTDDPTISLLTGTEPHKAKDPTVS

Protein RecA = target: T2, Protein RecA (Mycobacterium tuberculosis, UniProt P9WHJ3); assay: Fluorescence Cell-Free Homogeneous Dose Retest to Identify Inhibitors of RecA-Intein Splicing Activity. [Related pubchem assays (depositor defined):AID2097, AID2223, AID489010, AID492950]; assay type: functional
T2 sequence (P9WHJ3 whole entry): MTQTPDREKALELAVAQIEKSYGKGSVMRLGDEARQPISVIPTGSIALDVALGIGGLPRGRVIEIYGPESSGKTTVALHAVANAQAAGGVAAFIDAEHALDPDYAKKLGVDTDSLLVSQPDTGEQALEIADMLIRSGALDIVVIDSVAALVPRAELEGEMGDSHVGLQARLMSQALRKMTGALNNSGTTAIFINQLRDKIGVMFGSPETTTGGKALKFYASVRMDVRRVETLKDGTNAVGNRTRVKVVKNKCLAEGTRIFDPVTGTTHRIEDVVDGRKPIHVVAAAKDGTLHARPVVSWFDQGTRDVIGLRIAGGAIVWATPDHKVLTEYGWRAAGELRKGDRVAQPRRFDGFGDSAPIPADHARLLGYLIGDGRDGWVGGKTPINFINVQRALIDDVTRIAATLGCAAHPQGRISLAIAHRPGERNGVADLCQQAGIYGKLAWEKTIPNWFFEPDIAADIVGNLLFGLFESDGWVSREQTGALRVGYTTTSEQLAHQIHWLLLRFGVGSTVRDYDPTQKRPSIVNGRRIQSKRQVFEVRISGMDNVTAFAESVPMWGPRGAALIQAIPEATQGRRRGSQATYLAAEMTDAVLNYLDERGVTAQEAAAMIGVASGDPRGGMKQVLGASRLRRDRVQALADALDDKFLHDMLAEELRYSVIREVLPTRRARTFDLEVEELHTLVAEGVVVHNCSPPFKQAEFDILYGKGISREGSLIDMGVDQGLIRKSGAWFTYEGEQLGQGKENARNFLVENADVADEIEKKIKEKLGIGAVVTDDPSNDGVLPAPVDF

[2] = target: T3, Replicative DNA helicase DnaB (Mycobacterium tuberculosis, UniProt P9WMR3); assay: DnaB intein splicing inhibitors, dose response, biochemical, cell-free fluorescence (AID 449749); assay type: functional
T3 sequence (P9WMR3 whole entry): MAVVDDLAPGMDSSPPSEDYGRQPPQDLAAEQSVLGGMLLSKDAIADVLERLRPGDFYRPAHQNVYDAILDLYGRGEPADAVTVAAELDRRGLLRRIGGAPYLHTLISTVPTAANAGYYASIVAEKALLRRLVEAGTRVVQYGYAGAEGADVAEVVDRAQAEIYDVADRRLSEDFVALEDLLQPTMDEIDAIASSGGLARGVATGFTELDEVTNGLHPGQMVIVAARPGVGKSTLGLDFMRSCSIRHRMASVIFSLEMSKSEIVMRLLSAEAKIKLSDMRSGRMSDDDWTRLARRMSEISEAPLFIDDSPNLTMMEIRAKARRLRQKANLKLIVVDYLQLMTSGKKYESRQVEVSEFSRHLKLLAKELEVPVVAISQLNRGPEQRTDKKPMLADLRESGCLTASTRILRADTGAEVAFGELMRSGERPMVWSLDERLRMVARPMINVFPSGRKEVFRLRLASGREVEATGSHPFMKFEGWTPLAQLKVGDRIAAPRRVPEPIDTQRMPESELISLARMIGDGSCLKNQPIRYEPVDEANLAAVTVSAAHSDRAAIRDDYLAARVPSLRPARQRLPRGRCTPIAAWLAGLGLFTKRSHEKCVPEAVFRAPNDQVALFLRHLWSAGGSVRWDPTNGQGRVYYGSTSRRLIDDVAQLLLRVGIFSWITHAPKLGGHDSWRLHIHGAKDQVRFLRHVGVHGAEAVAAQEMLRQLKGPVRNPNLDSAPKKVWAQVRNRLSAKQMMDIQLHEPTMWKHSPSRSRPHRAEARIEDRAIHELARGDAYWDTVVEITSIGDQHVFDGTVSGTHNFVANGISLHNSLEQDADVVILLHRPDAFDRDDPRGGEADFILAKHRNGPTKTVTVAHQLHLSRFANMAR

Cytochrome P450 3A4 = Cytochrome P450 3A4 (Homo sapiens, UniProt P08684);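 also: CYP3A4 tested as one member of a cytochrome P450 panel screen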
Cytochrome P450 2D6 = Cytochrome P450 2D6 (Homo sapiens, UniProt P10635);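 also: CYP2D6 member of a cytochrome P450 panel assay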
Cytochrome P450 2C9 = Cytochrome P450 2C9 (Homo sapiens, UniProt P11712)
[3] = inhibitors of intracellular T. cruzi replication, confirmation, NIH3T3 host cells, beta-gal luminescence (AID 2044); assay type: functional, cell-based;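 also: intracellular parasites grown in NIH/3T3 mouse fibroblasts as host cells; luminescent beta-galactosidase reporter signal from transgenic T. cruzi replicating inside host cells; inhibitors lower the luminescence signal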
[4] = cytotoxicity toward NIH3T3 fibroblasts, dose response, counter-screen, cell-based, ATP luminescence, mouse fibroblasts (AID 2010); assay type: functional;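 also: cells exposed to compound for about 90 hours before reading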
[5] = Luminescence Cell-Based Dose Response HTS to Identify Inhibitors of 5'UTR Stem-Loop Driven Prion Protein mRNA Translation in H4 Neuroglioblastoma Cells. [Related pubchem assays: 1827 (Project Summary), 1813 (Primary HTS)]; assay type: functional
[6] = inhibitors of SNCA 5'UTR-driven reporter translation, confirmation, H4 neuroglioma cells, luminescence (AID 1988); assay type: functional, cell-based
INS1 = assay: beta cell apoptosis inhibitors, cytokine rescue, dose response, luminescence, retest (AID 449756); assay type: functional, cell-based; conditions: Rattus norvegicus;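 also: cell death triggered by IL-1 beta plus TNF-alpha plus IFN-gamma mixture; protective hits raise ATP signal compared with cytokine alone wells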
Cytochrome P450 2C19 = Cytochrome P450 2C19 (Homo sapiens, UniProt P33261); assay: Cytochrome panel assay with activity outcomes. Panel member name: p450-cyp2c19 Compounds with AC50 equal or less than 10 uM are considered active; assay type: functional; conditions: read-out: AC50
Chain of Cytochrome P450 2C19 (P33261 whole entry): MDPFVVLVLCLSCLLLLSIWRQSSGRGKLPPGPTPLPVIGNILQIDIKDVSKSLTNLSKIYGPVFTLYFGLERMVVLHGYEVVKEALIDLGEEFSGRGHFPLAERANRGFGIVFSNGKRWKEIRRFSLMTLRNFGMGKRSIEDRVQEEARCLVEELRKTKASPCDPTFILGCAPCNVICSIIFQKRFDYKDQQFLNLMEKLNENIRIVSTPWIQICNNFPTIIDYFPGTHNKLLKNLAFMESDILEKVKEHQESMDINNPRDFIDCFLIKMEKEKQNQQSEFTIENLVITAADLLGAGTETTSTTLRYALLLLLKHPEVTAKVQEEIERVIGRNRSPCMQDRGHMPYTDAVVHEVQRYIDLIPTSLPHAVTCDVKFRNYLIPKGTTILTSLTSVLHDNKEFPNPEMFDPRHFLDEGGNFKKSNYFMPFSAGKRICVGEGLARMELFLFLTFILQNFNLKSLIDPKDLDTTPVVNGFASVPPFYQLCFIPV

Chain of Cytochrome P450 2C9 (P11712 whole entry): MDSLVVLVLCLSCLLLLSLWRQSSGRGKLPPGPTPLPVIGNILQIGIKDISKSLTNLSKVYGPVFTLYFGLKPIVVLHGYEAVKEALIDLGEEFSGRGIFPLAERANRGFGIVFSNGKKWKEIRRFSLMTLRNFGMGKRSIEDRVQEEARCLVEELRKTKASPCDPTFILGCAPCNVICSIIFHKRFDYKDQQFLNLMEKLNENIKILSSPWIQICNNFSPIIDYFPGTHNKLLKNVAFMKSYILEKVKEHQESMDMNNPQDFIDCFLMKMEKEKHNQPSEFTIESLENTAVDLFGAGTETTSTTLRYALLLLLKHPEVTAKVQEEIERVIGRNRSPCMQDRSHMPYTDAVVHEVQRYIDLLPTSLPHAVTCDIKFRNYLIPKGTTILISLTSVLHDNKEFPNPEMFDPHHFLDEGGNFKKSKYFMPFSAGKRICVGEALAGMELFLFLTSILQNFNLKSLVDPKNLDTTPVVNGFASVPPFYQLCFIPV
Chain of Cytochrome P450 2D6 (P10635 whole entry): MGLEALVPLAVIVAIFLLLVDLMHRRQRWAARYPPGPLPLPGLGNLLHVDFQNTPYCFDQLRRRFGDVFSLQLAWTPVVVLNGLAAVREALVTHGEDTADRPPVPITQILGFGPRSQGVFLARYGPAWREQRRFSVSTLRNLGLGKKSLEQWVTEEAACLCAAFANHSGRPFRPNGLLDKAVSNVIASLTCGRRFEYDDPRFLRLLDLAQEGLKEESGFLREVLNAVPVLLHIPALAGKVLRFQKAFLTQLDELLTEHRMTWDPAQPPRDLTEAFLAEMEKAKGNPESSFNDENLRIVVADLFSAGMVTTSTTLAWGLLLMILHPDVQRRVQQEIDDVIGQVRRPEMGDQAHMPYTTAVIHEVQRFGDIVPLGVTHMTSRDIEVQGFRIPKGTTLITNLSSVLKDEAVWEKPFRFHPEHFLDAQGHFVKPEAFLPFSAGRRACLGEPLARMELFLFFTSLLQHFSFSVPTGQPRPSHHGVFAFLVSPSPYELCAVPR
Chain of Cytochrome P450 3A4 (P08684 whole entry): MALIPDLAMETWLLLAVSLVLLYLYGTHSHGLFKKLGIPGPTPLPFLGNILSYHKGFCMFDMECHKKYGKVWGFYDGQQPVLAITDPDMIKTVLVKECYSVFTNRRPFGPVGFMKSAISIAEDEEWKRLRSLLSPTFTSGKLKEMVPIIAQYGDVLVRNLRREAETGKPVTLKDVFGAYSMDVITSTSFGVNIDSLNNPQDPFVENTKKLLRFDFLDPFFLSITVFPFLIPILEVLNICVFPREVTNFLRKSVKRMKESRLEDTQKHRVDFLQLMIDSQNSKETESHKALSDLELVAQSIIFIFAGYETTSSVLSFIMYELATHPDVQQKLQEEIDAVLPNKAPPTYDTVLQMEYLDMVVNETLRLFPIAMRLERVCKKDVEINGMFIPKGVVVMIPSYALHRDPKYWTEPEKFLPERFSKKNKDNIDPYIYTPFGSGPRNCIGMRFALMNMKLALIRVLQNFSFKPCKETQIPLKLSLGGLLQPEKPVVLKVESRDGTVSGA

Compound | EC50 [1] | AC50 (Cytochrome P450 2D6) | further results
CCOC(=O)c1cnc2ccc(C)cc2c1Sc1ccc(F)cc1 | 11.2 µM (active) | – | EC50 (Protein RecA): 2.95 µM (active); AC50 [2]: 5.76 µM (active)
CN1CCN(C(=O)/C(=C/c2cccnc2)NC(=O)c2cccc(Br)c2)CC1 | > 260 µM (inactive) | – | –
COc1ccc(C(=O)N2CCC3(CCCN(Cc4ccccc4OC)C3)CC2)cc1 | – | 12.6 µM (inconclusive) | AC50 (Cytochrome P450 3A4): 15.8 µM (inconclusive)
Nc1nnc(CSCc2ccccc2Cl)s1 | > 260 µM (inactive) | – | –
O=C(NC1CCCC1)C(c1ccc(F)cc1)N(Cc1ccc(F)cc1)C(=O)c1cc[nH]n1 (centres undefined) | – | 25.1 µM (inconclusive) | AC50 (Cytochrome P450 2C9): 39.8 µM (inconclusive)
CCN(CC)S(=O)(=O)c1ccc2oc(C(=O)NC3CCCc4ccccc43)c(C)c2c1 (centres undefined) | – | – | EC50 [3]: 2.1 µM (active); EC50 [4]: > 60 µM (not active)
CC1CC(C)CN(C(=O)CCS(=O)(=O)c2ccc3c(c2)NC(=O)CS3)C1 (centres undefined) | > 260 µM (inactive) | – | –
Cc1nnc2nc(SCC(=O)NCC3CCCO3)n(-c3ccc(Br)cc3)c(N)c1-2 (centres undefined) | – | 10 µM (inconclusive) | AC50 (Cytochrome P450 2C9): 14.1 µM (inconclusive)
O=C(Nc1ccccc1)N1CCCN(c2ccc(C(F)(F)F)cc2[N+](=O)[O-])CC1 | > 260 µM (inactive) | – | –
Cc1ccc(S(=O)(=O)c2cc(C#N)c(O)nc2N)cc1 | – | 39.8 µM (inconclusive) | AC50 (Cytochrome P450 3A4): 25.1 µM (inconclusive)
CCc1cc2c3c(c1)C1(C(=O)N3C(C)(C)C=C2C)C(C#N)=C(N)Oc2nc(O)nc(O)c21 (centres undefined) | – | – | EC50 (Protein RecA): 2.65 µM (active); AC50 [2]: 11 µM (active)
CS(=O)(=O)C1=NN2C(=N)/C(=C\c3ccc(OC(=O)c4ccco4)cc3)C(=O)N=C2S1 | – | – | EC50 (Protein RecA): 16.8 µM (active); AC50 [2]: > 380 µM (inactive)
COc1ccc(C(=O)ON=C(N)c2ccccc2)c(OC)c1 | – | – | EC50 [5]: > 120 µM (not active); EC50 [6]: 5.93 µM (active)
Cc1ccccc1OCCNC(=O)c1ccccc1Sc1ccccc1C#N | – | 25.1 µM (inconclusive) | AC50 (Cytochrome P450 2C9): 28.2 µM (inconclusive)
Cn1cc(C=O)c(-c2ccc3c(c2)OCCCO3)n1 | > 260 µM (inactive) | – | –
Cc1cccc(C(C)C)c1NC(=O)COC(=O)c1cccc(S(=O)(=O)N2CCc3ccccc3C2)c1 | > 260 µM (inactive) | – | –
Cc1ccc(N2C(=O)C(Cl)=C(NCc3ccccc3)C2=O)c(C)c1 | – | 22.4 µM (inconclusive) | –
CC(C)(CC(=O)N1CCN(c2ccc(Cl)cc2)CC1)CC1=NS(=O)(=O)c2ccccc2N1 | – | 3.16 µM (inconclusive) | –
CCOc1ccc(NC(=S)N(Cc2ccc(Cl)cc2)Cc2ccco2)cc1 | > 260 µM (inactive) | – | –
CCCCCC1=C2CNC(CCC)(C(=O)OC)C=C2C(C)C1=O (centres undefined) | – | 12.6 µM (inconclusive) | –
O=C(NCc1cccnc1)c1cc(-c2ccco2)on1 | – | – | AC50 (INS1): 1.62 µM (active)
CSc1c(-c2ccccc2)nc2ccccc2c1C(=O)O | – | 3.16 µM (inconclusive) | AC50 (Cytochrome P450 2C19): 10 µM (inconclusive)
